Results published in patent EP1330254B1, “TREATMENT OF CANCERS BY APLIDINE IN CONJUNCTION WITH CARNITINE OR ACETYLCARNITINE” (priority 2000, dated 2002).
Like-named read-outs stand apart in the source and are kept apart here. Starred links: 1 amine or outer side, 2 acyl side, 3 side chain; linkers in the order of their positions; H or OH if unused. Positions of bridges follow the written chain, without caps; N, C: chain ends. Non-standard residues stand in square brackets, D forms with d. Residues, ends and D or L forms follow the SMILES beside them. *: point of attachment. X1 = CC[C@H](C)[C@@H](N[*:1])[C@@H](O)CC(=O)O[C@H](C(=O)[C@H](C)C(=O)[*:2])C(C)C; NMeY = CN[C@@H](Cc1ccc(O)cc1)C(=O)O; dNMeL = CN[C@H](CC(C)C)C(=O)O; Pyruvoyl = CC(=O)C(=O)*

Key:
human cancer xenografts = conditions: cited from earlier work
[1] = L-carnitine as myoprotector in aplidine patients (study APL-A-003-98); type: in vivo, human
Method: More generally, the invention involves the use of a muscle protector in conjunction with aplidine therapy. We have found in particular that carnitine is beneficial in treating myotoxicity that is associated with chemotherapy with the experimental drug aplidine. […] When L-carnitine 4.5 g/day was added to the therapy (at doses of 1.5 g three times daily), or […] (at doses of […] 3 times daily) patients were able to tolerate doses of aplidine up to 6000 mcg/m 2 every second week. […] Therefore, muscle protectors such as L-carnitine is a useful myoprotector for patients being treated with aplidine or an aplidine analogue.
L-carnitine at a dose of 1.5 grams 3 times per day or 0.033 g/kg 3 times per day was started in all patients of study APL-A-003-98.
The dose may be decreased to manage the above effects.

[2] = stability of aplidine solution and lyophilised formulation; type: physicochemical; conditions: solubilised aplidine, heat and light stress testing conditions
Method: In a currently preferred embodiment freeze-drying was performed from a 500 mg/mL solution of aplidine in 40% (v/v) tert-butanol in Water for Injection (WfI) containing 25 mg/mL D-mannitol as bulking agent.

CT-2 = CT-2 epithelial-like cell line; cited from earlier work
human bladder cancer = assay: bladder cancer animal models; type: in vivo
CT-1 = CT-1 epithelial-like cell line; cited from earlier work
MDA-MB231 and MCF-7 = conditions: treated breast cancer cells; cited from earlier work
[3] = test system: solid tumours and non-Hodgkin lymphoma; assay: Phase I study, 24h continuous infusion every other week: antitumour activity; type: in vivo, human; conditions: patients
Method: (§1) A phase I and pharmacokinetic study of aplidine, given as a 24h continuous infusion every other week in patients with solid tumours and non-Hodgkin lymphoma

MDA-MB231 = conditions: aplidine 50 nmol/L; cited from earlier work
[4] = test system: gene (FLT1) encoding the receptor of the Vascular Endothelial Growth Factor (VEGF); assay: inhibition of gene expression; type: cell-based
[5] = Phase I study, 24h continuous infusion every other week: toxicities; type: in vivo, human; conditions: Pat #27, medullary thyroid carcinoma, 6000 µg/m^2 weekly
VEGF protein = assay: VEGF production by tumour cells; type: cell-based
B16 melanoma = conditions: mice; cited from earlier work
MCF-7 = conditions: aplidine 50 nmol/L; cited from earlier work
P388 leukaemia = conditions: mice; cited from earlier work
[6] = Phase I study, 24h continuous infusion every other week: pharmacokinetics; type: in vivo, human; conditions: for half-life: human, iv
Method: as §1

[7] = Phase I study, 24h continuous infusion every other week: toxicities; type: in vivo, human
Method: as §1
Characterisation of Muscular Toxicity (DLT)

HT-29 = HT-29 human colon cancer cell line; cited from earlier work
prostate tumour = conditions: 1.25 mg/kg, prostate tumour growth inhibition; cited from earlier work
ornithine decarboxylase = molecular target: T1, ornithine decarboxylase (Homo sapiens, UniProt P11926); conditions: all three cell lines CT-1, CT-2, HT-29; cited from earlier work
T1 construct: endogenous in cells; host or cells: CT-1, CT-2 and HT-29 colon cell lines
T1 sequence (P11926 whole entry): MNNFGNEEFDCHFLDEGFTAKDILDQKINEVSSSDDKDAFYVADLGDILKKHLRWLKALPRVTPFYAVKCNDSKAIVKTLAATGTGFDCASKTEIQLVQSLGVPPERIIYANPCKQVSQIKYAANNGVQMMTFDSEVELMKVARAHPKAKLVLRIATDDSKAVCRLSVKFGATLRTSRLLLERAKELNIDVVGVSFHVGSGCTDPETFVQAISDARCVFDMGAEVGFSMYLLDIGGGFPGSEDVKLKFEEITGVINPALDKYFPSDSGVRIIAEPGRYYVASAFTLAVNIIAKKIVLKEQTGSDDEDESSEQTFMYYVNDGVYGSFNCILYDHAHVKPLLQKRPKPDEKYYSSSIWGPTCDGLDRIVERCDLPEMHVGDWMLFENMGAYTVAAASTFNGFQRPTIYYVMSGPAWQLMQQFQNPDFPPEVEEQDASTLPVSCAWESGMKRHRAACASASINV

[8] = test system: Non-small cell lung cancer, breast cancer and melanoma cell lines; conditions: continuous exposure; cited from earlier work
lewis lung carcinomas = conditions: cited from earlier work
[9] = Phase I dosing regimes with and without carnitine (MTD, DLT, RD); type: in vivo, human; parameters: recommended dose, RD: unit not given here
Description: The Recommended Dose (RD) is the highest dose which can be safely administered to a patient producing tolerable, manageable and reversibly toxicity according to the Common Toxicity Criteria established by the National Cancer Institute, (USA) with no more than 2 out of 6 patients presenting any dose limiting toxicities (DLT). Guidelines for cancer therapy frequently call for administration of chemotherapeutic agents at the highest safe dose at which toxicity is manageable in order to achieve maximum efficacy (DeVita, V.T. Jr., Hellman, S. and Rosenberg, S.A., Cancer: Principles and Practice of Oncology, 3rd ed., 1989, Lipincott, Philadelphia).
DLTs for aplidine using this method of treatment were determined in clinical studies. These studies established a recommended dose level for differing kinds of dosing protocols.

[10] = Phase I studies: features of aplidine myotoxicity; type: in vivo, human
Description: The presentation is variable among patients. Mild cases have muscle cramps (at doses from 3200 mcg/m2 every 2 weeks), while in more severe cases the symptoms are associated to reversible increases in creatin-kinase (CK) reaching up to grade 3. In the dose-limiting cases there is weakness of proximal distribution. The effect has a delayed onset, appearing after 3 to 8 (median 4) infusions of the drug.

cell cycle = conditions: flow cytometric analysis; cited from earlier work
gastric tumours = conditions: 1.25 mg/kg; cited from earlier work
[11] = test system: panel of 25 human tumor cell lines; assay: tumor protection by L-carnitine, cell line panel; type: cell-based; conditions: initial results
Method: The possibility of tumor protection by L-carnitine was evaluated using a panel of 25 human tumor cell lines.

[12] = 200 mcg/m^2/2wks, patients affected of 3
[13] = 400 mcg/m^2/2wks, patients affected of 3
[14] = 800 mcg/m^2/2wks, patients affected of 3
[15] = 1600 mcg/m^2/2wks, patients affected of 6
[16] = 3200 mcg/m^2/2wks, patients affected of 3
[17] = 4000 mcg/m^2/2wks, patients affected of 3
[18] = 5000 mcg/m^2/2wks, patients affected of 3
[19] = 6000 mcg/m^2/2wks, patients affected of 12
[20] = 7000 mcg/m^2/2wks, patients affected of 7
[21] = 24 hour infusion every 2 weeks, L-carnitine daily
[22] = weekly 1 hour infusion for 3 weeks, 1 week rest
[23] = weekly 24 hour infusion for 3 weeks, 1 week rest
[24] = L-carnitine at the doses used in this study

CC[C@H](C)[C@H]1NC(=O)[C@@H](NC(=O)[C@@H](CC(C)C)N(C)C(=O)[C@@H]2CCCN2C(=O)C(C)=O)[C@@H](C)OC(=O)[C@H](Cc2ccc(OC)cc2)N(C)C(=O)[C@@H]2CCCN2C(=O)[C@H](CC(C)C)NC(=O)[C@@H](C)C(=O)[C@H](C(C)C)OC(=O)C[C@@H]1O [aplidine, Dehydrodidemnin B] (Pyruvoyl-P[dNMeL]T[X1]LP[NMeY](Me); ester 3-C)
treated/control (T/C) tumour ratio (human cancer xenografts; 2.1 mg/kg, near complete remissions in some animals): 9%
maximum tolerated dose (human cancer xenografts; mice bearing human cancer xenografts): 2.1 mg/kg
doses of aplidine patients were able to tolerate ([1]; every second week, 24-hour infusion, with L-carnitine 4.5 g/day or 0.1mg/kg): up to 6000 mcg/m 2
degradation [2]: substantial degradation
cytotoxic activity (CT-2): dose-dependent cytotoxic activity
activity on human bladder cancer (human bladder cancer): exceedingly high activity
cytotoxic activity (CT-1): dose-dependent cytotoxic activity
spermidine and spermine (MDA-MB231 and MCF-7): significant increase
antitumour activity [3]: noted in patients with NHL and renal carcinoma
inhibited the growth (MDA-MB231): 17%
expression of the gene (FLT1) [4]: inhibits expression
muscular toxicity (DLT) [5]: symptomatic G3 CPK with G2 muscular pain
production of the VEGF protein (VEGF protein): severely inhibit production
activity against implanted tumour (B16 melanoma): active
optimal dose (B16 melanoma): 160 micrograms/kg
inhibited the growth (MCF-7): 47%
activity against implanted tumour (P388 leukaemia): active
optimal dose (P388 leukaemia): 160 micrograms/kg
half-life ([6]; in vivo, the 3 patients with clear muscular toxicity, read-out: t ½): > 44 h
half-life ([6]; plasma, preliminary compartmental analysis, 24 h infusion, read-out: median half-life, longer terminal phase (converted)): 25.8 h
half-life ([6]; plasma, preliminary compartmental analysis, first-order 2-compartment model, read-out: median half-life, rapid initial phase (converted)): 0.64 h
half-life ([6]; plasma, quartiles 15.7-35.0, read-out: t ½, median (converted)): 23.8 h
PK profile ([6]; within the constraints of the low sample size): dose-linear
muscle biopsies, E/M ([7]; 2 patients): partial disappearance of thick filaments of myosin
CPK elevations ([7]; 3 patients (5000 and 6000 µg/m^2), CPK MM increase): minor elevations of CPKs (≥G2)
Nausea/vomiting G2 [7, 12]: 2
Transaminitis G2 [7, 12]: 1
Asthenia G2 [7, 13]: 2
Hypertension G2 [7, 13]: 1
Nausea/vomiting G2 [7, 13]: 1
Flushing G1 [7, 14]: 1
Muscle cramps G1+G2 [7, 14]: 2
Asthenia G2 [7, 15]: 2
Asthenia G3 [7, 15]: 1
Muscle cramps G1+G2 [7, 15]: 1
Nausea/vomiting G2 [7, 15]: 4
Transaminitis G3 [7, 15]: (1)
Asthenia G2 [7, 16]: 1
Flushing G1 [7, 16]: 1
Muscle cramps G1+G2 [7, 16]: 2
Muscle pain G2 [7, 16]: (1)
Nausea/vomiting G3 [7, 16]: (1)
Asthenia G2 [7, 17]: 1
Flushing G1 [7, 17]: 1
Muscle cramps G1+G2 [7, 17]: 2
Muscle pain G1 [7, 17]: 2
Nausea/vomiting G2 [7, 17]: 2
Pain central catheter G2 [7, 17]: 2
Asthenia G3 [7, 18]: (1)
CPK elevation G3 [7, 18]: (1) [1]
CPK elevation G4 [7, 18]: (1) [1]
Muscle cramps G1+G2 [7, 18]: 2
Muscle pain G1 [7, 18]: 1
Muscle weakness G1 [7, 18]: 1
Nausea/vomiting G2 [7, 18]: 1
Transaminitis G2 [7, 18]: 1
dose limiting toxicity (drug induced muscular changes) ([7]; 6000 mcg/m^2): 1/9
Asthenia G2 [7, 19]: 6
CPK elevation G2 [7, 19]: 1(1)
CPK elevation G3 [7, 19]: 1(1)
Muscle cramps G1+G2 [7, 19]: 1
Muscle pain G1 [7, 19]: 1
Muscle pain G2 [7, 19]: 2
Muscle weakness G1 [7, 19]: 1(1)
Muscle weakness G2 [7, 19]: 1(1)
Nausea/vomiting G2 [7, 19]: 2
Asthenia G2 [7, 20]: 2
CPK elevation G2 [7, 20]: 1
Flushing G1 [7, 20]: 1
Muscle pain G1 [7, 20]: 1
Nausea/vomiting G2 [7, 20]: 1
Neutrophenia G4 [7, 20]: 1
Transaminitis G2 [7, 20]: 1
toxicity recovered after treatment discontinuation ([7]; Pat #27, 6000 µg/m^2): ≤ 3 weeks
cytotoxic activity (HT-29): dose-dependent cytotoxic activity
T/C (prostate tumour): 25%
ornithine decarboxylase activity (ornithine decarboxylase): decreased
concentrations at which cell lines were sensitive [8]: >= 0.001 micromol/L
activity in SC implanted lewis lung carcinomas (lewis lung carcinomas): active
dose-limiting toxicity ([9]; 1-hour infusion for 5 consecutive days every 3 weeks): Muscular/long lasting emesis
dose-limiting toxicity ([9]; 24 hour infusion every 2 weeks): Muscular
recommended dose, RD ([9]; 24 hour infusion every 2 weeks): 5000
dose-limiting toxicity [9, 21]: Flu-like syndrome
recommended dose, RD [9, 21]: 7000
dose-limiting toxicity [9, 22]: Muscular
recommended dose, RD [9, 22]: 3250
dose-limiting toxicity [9, 23]: Muscular/ hepatic
recommended dose, RD [9, 23]: 3750
RD ([9]; with L-carnitine 0.1 g/kg /day, for Phase II studies): 7 mg/m^2
delayed onset of myotoxicity, infusions of the drug, median ([10]; median): 4 infusions
reversible increases in creatin-kinase (CK) ([10]; more severe cases): ≤ 3 grade
light microscopy of muscle ([10]; most biopsied patients): just minimal necrosis or no changes at all
cell cycle perturbations (cell cycle): did not induce any apparent cell cycle periubations
T/C (gastric tumours): 14%

C[N+](C)(C)C[C@H](O)CC(=O)[O-] [L-carnitine]
outcome in patients with prior skeletal muscle toxicity ([1]; 4 patients continuing aplidine, L-carnitine 1.5 grams 3 times per day or 0.033 g/kg 3 times per day): no skeletal muscle symptoms and just transient grade 1 CK increases
outcome in patients on L-carnitine prophylaxis from the beginning ([1]; 11 patients): just an asymptomatic G1 increase in CK
only toxicity reported [1, 24]: grade 1 abdominal discornfort and diarrhea
tolerability [1, 24]: well tolerated
increase of aplidine MTD ([1]; L-carnitine prophylaxis, 24 h every other week infusion study): 33%
outcome after L-carnitine at reduced doses ([1]; two patients, grade 3 with weakness and grade 1 with asthenia): symptomatic increases in CK
effect on the antitumor activity of aplidine [11]: lack of effect
